Experimental findings from ChEMBL document CHEMBL1201862, “PubChem BioAssay data set” (2004) are described below.

What all share (assay): NCI tumour cell line growth inhibition, 48 h
Assay [1] has as its system HCT-116.
In assay [2] the test system is SW-620.
Assay [3] has as its system CCRF-CEM.
Assay [4] has as its system Hs-578T.
The subject of assay [5] is COLO 205.
In assay [6] the test system is KM12.
Assay [7] concerns MOLT-4.
In assay [8] the test system is M14.
For assay [9], the system named is HCC 2998.
For assay [10], the system named is K562.
For assay [11], the system named is Malme-3M.
In assay [12] the test system is A498.
The test system of assay [13] is SF-295.
Assay [14] deals with HL-60.
The test system of assay [15] is OVCAR-3.
For assay [16], the system named is MCF7.
Assay [17] has as its system NCI-H460.
For assay [18], the system named is MDA-MB-231.
Assay [19] concerns UACC-62.
For assay [20], the system named is SK-MEL-2.

Each structure is given as a SMILES string.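 Method: 48-hour compound exposure of cells in 96-well plates, five concentrations, linear interpolation of endpoints. The concentration for 50% growth inhibition is given as GI50.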 The source made the active and inactive calls. Rule as the data show it: active = GI50 up to about 1.1 µM and inactive = higher.

For `O/N=C(\C=N\O)c1ccc2c(c1)Sc1ccccc1O2`, the GI50 in assay [1] was 18 µM (inactive); in assay [2], 22.9 µM (inactive); in assay [3] it was 2.39 µM (inactive); in assay [4], 24.9 µM (inactive); in [5] it was 21.4 µM (inactive); in [6] it was 33 µM (inactive). The GI50 in assay [7] is 5.43 µM (inactive); in assay [8] it was 19.9 µM (inactive); in assay [9], 23.4 µM (inactive); in assay [10], 22.1 µM (inactive); in assay [11], 29.5 µM (inactive); in assay [12], 15.6 µM (inactive). The GI50 is 22.3 µM (inactive) in assay [13]; 20.9 µM (inactive) in assay [14]; 17.7 µM (inactive) in assay [15]; 16.9 µM (inactive) in assay [16]; 23.7 µM (inactive) in assay [17]; 15.7 µM (inactive) in assay [18]. Also, the GI50 in assay [19] was 18.1 µM (inactive).

Take `C=CCOc1ccccc1C1(O)c2ccccc2C2=NCCCN21` (stereo unspecified): the GI50 is 34.2 µM (inactive) in assay [1]; 56.5 µM (inactive) in [2]; 33 µM (inactive) in [3]; 77.8 µM (inactive) in [4]; 21.4 µM (inactive) in assay [5]; 32.4 µM (inactive) in assay [6]. Moreover, the GI50 in assay [7] was 32.9 µM (inactive); in [8], 18.7 µM (inactive); in [9], 15.7 µM (inactive); in assay [10], 45.3 µM (inactive); in assay [12], > 100 µM (inactive); in [13], 31 µM (inactive). The GI50 in assay [14] is 26.8 µM (inactive); in [15] it was 22.2 µM (inactive); in assay [16], 31.5 µM (inactive); in assay [17] it was 78.9 µM (inactive); in [18], > 100 µM (inactive); in [19] it was 40.9 µM (inactive).

In the case of `O=C1C(Cl)=C(NCCCN2CCOCC2)C(=O)c2c(O)ccc(O)c21`, the GI50 in assay [1] is 1.59 µM (inactive); in assay [2], 1.95 µM (inactive); in [3], 1 µM (active); in assay [4], 1.27 µM (inactive); in assay [6], 1.85 µM (inactive); in [7], 1 µM (active). Also, the GI50 in [8] is 1.96 µM (inactive); in assay [9] it was 2.2 µM (inactive); in assay [10], 2.62 µM (inactive); in assay [11], 1.91 µM (inactive); in assay [12], 10 µM (inactive); in assay [13], 2.53 µM (inactive). Further, the GI50 in assay [15] is 1.61 µM (inactive); in [16], 1.55 µM (inactive); in assay [17], 3.13 µM (inactive); in assay [18], 3.01 µM (inactive); in assay [19], 1.77 µM (inactive); in assay [20], 0.228 µM (active).

As for `COc1ccccc1/C=C/c1nc2ccccc2o1`, the GI50 in assay [1], in [2], in [3], in assay [4], in assay [5] and in [6] was > 10 µM (inactive) in each case. Besides, the GI50 in assay [7], in assay [8], in assay [9], in assay [10], in [11] and in assay [12] was > 10 µM (inactive) each time. Also, the GI50 in assay [13], in assay [15], in assay [16], in [17], in assay [18] and in [19] was > 10 µM (inactive) throughout. In addition, in assay [20], the GI50 was > 10 µM (inactive).

With `N#CC(C#N)=C1C(=Cc2ccc(OCCCCCCCCCCSSCCCCCCCCCCOc3ccc(C=C4C(=C(C#N)C#N)c5ccccc5C4=C(C#N)C#N)cc3)cc2)C(=C(C#N)C#N)c2ccccc21`, the GI50 was 17.1 µM (inactive) in assay [1]; 23.3 µM (inactive) in assay [2]; 20.4 µM (inactive) in assay [4]; 25.4 µM (inactive) in [6]; 23.6 µM (inactive) in assay [7]; 20.3 µM (inactive) in assay [8]. Besides, the GI50 in [9] is 14.7 µM (inactive); in assay [10], 23.7 µM (inactive); in assay [12], 18.7 µM (inactive); in assay [13], 20.1 µM (inactive); in [14], 0.0465 µM (active); in assay [15] it was 29.7 µM (inactive). In addition, the GI50 in assay [16] was 20.8 µM (inactive); in [17] it was 22.1 µM (inactive); in assay [18], 28.6 µM (inactive); in [20], 25.8 µM (inactive).

Take `CCOc1ccc(N/C(=C(/C(Cl)=C(/Cl)NCCO)[N+](=O)[O-])n2nnc3ccccc32)cc1`: the GI50 in assay [1] is 37.7 µM (inactive); in assay [2], 19.2 µM (inactive); in assay [3], 5.57 µM (inactive); in [4], 15.2 µM (inactive); in assay [5], 16.1 µM (inactive); in assay [6], 24.8 µM (inactive). In addition, the GI50 was 5.96 µM (inactive) in assay [7]; 30.4 µM (inactive) in [8]; 79.4 µM (inactive) in assay [9]; 20.8 µM (inactive) in [10]; 18.4 µM (inactive) in assay [11]; 31 µM (inactive) in assay [12]. For the same molecule, the GI50 in assay [13] is 28 µM (inactive); in assay [15], 18.1 µM (inactive); in assay [16], 19 µM (inactive); in assay [17] it was 48 µM (inactive); in [18], 20.6 µM (inactive); in assay [19] it was 21.9 µM (inactive). Moreover, the GI50 in assay [20] is 35 µM (inactive).

As to `CC(=O)[C@]12OC(=O)C3=C1[C@H](CC[C@@H]3C)[C@@H](C)C[C@H]2C=C(C)C`, the GI50 was 6.55 µM (inactive) in assay [1]; 7.55 µM (inactive) in assay [2]; 9.44 µM (inactive) in assay [3]; 8.18 µM (inactive) in [4]; 8.79 µM (inactive) in assay [5]; 7.62 µM (inactive) in [6]. Also, the GI50 in assay [7] is 10 µM (inactive); in [8] it was 8.39 µM (inactive); in [10], 5.6 µM (inactive); in assay [12], 7.96 µM (inactive); in assay [13], 6.4 µM (inactive); in [14], 7.71 µM (inactive). For the same molecule, the GI50 in assay [15] was 7.31 µM (inactive); in assay [16], 8.85 µM (inactive); in [17], 8.63 µM (inactive); in assay [18], 8.2 µM (inactive); in assay [19] it was 5.68 µM (inactive); in assay [20], 7.82 µM (inactive).

For `COC(OC)[C@@H]1OC[C@@H](O)[C@@H]1n1cnc2c(N)ncnc21`, the GI50 in assay [1], in assay [2], in assay [3], in [4], in [5] and in assay [6] was > 100 µM (inactive) throughout. Further, the GI50 in assay [7], in [8], in [9], in [10], in [11] and in assay [12] was > 100 µM (inactive) throughout. For the same molecule, the GI50 in [13], in [15], in assay [16], in assay [17], in assay [18] and in assay [19] was > 100 µM (inactive) each time. Further, the GI50 in assay [20] was > 100 µM (inactive).

For the molecule `O=C(O)C(O)C(O)C(O)C(O)c1nc2ccccc2s1` (stereo unspecified), the GI50 was 16.1 µM (inactive) in [1]; 22.3 µM (inactive) in assay [2]; 3.53 µM (inactive) in assay [3]; 16.7 µM (inactive) in assay [4]; 34.8 µM (inactive) in [5]; 24.7 µM (inactive) in assay [6]. Also, the GI50 in assay [8] is 17.8 µM (inactive); in [11], 15.5 µM (inactive); in assay [12], 24.6 µM (inactive); in assay [13], 15.6 µM (inactive); in assay [14], 17.6 µM (inactive); in assay [15], 17.5 µM (inactive). Also, the GI50 in assay [16] was 17.1 µM (inactive); in assay [17], 16.3 µM (inactive); in [18] it was 16.6 µM (inactive); in assay [19], 15.3 µM (inactive); in assay [20] it was 19.2 µM (inactive).

`COC(=O)C(COC(=O)/C=C/c1ccc(OC(C)=O)c(OC(C)=O)c1)OC(=O)/C=C/c1ccc(OC(C)=O)c(OC(C)=O)c1` (stereo unspecified): the GI50 was 4.14 µM (inactive) in assay [1]; 6.27 µM (inactive) in assay [2]; 3.38 µM (inactive) in [3]; 13.7 µM (inactive) in [4]; 15.9 µM (inactive) in assay [5]; 12 µM (inactive) in [6]. For the same molecule, the GI50 in [7] is 1.95 µM (inactive); in assay [8], 7.8 µM (inactive); in [9], 17.5 µM (inactive); in assay [10], 3.48 µM (inactive); in assay [11], 15.5 µM (inactive); in assay [12], 16.5 µM (inactive). The GI50 is 14.3 µM (inactive) in [13]; 6.32 µM (inactive) in assay [15]; 6.61 µM (inactive) in assay [16]; 18.7 µM (inactive) in [17]; 6.7 µM (inactive) in assay [18]; 16.8 µM (inactive) in assay [19]. The GI50 in assay [20] is 12.2 µM (inactive).

On to `Cc1cnc2nc(-c3sccc3C)cc(O)c2c1`, for which the GI50 in assay [1] was 3.33 µM (inactive); in assay [2], 1.91 µM (inactive); in assay [3] it was 1.6 µM (inactive); in [4], 2.3 µM (inactive); in assay [5], 3.21 µM (inactive); in [6] it was 3.1 µM (inactive). For the same molecule, the GI50 is 6.18 µM (inactive) in assay [7]; 2.25 µM (inactive) in assay [8]; 6.07 µM (inactive) in assay [9]; 5.04 µM (inactive) in assay [10]; 1.37 µM (inactive) in assay [11]; 23.4 µM (inactive) in [12]. Further, the GI50 is 2.26 µM (inactive) in assay [13]; 3.13 µM (inactive) in [15]; 2.84 µM (inactive) in assay [16]; 2.99 µM (inactive) in [17]; 18.1 µM (inactive) in [18]; 2.59 µM (inactive) in assay [19]. For the same molecule, in [20], the GI50 is 3.4 µM (inactive).
